Results from patent US11110098B2, “Methods and medicaments for the treatment of renal cell carcinoma” (University of Kansas, priority 2017, dated 2021).

What was measured:
Caki-2 = settings: Caki-2, in vitro; cited from earlier work
A498 cells = settings: A498, in vitro; cited from earlier work
[1] = system: pERK1/2, ERK1/2, pCREB, CREB, VEGF; assay: Immunoblotting of xenograft tumor lysates; type: in vivo, Nu/Nu mice; settings: for VEGF protein levels in tumors compared to vehicle: OPC31260 IP, daily 28 days
Protocol: (§1) Female Athymic Nude-Foxn1^nu mice (Nu/Nu mice), 7-8 weeks old and weighing ˜25 g were procured from Envigo/Harlan. All animal studies were carried out according to the protocols approved by the University of Kansas Medical Center Institutional Animal Care and Use Committee. Mice were subcutaneously injected on the right flank region with 1×10^6 Caki-1 cells in 100 μl of DMEM medium. One week after injection, palpable tumors appeared and tumor volume was measured with calipers following the formula, Tumor volume=(length×width)/2. Once the tumor volume reached ˜80-100 mm^3, mice were randomized into sub-groups based on the tumor volume. Animals were administered vehicle, OPC31260 (30 mg/Kg BWt.), OPC31260 (60 mg/Kg BWt) or dDAVP (1 μg/Kg BWt.) and vehicle (saline) by daily intraperitoneal injection, or tolvaptan (120 mg/Kg BWt. in 1% aqueous solution of hydroxypropyl methylcellulose-dose derived from previous study^31) or vehicle by daily oral gavage for 28 days. Body weights and tumor volumes were measured every alternate day. At the end of the study, mice were injected with BRDU (100 mg/Kg BWt. by IP) 90 minutes before sacrifice. Tumors were harvested, photographed and weighed. Tumors were flash frozen or paraffin embedded for further analysis.
Tumors from mouse xenografts and cultured 786-O and Caki-1 cells were homogenized in SDS Laemmli buffer and loaded onto 10% SDS-polyacrylamide agarose gel electrophoresis gels, transferred to nitrocellulose membranes and blocked with 5% milk in TBST^32. Membranes were probed with primary antibody followed by wash and horseradish peroxidase secondary antibody application.

Caki-1 cells [2] = assay: Caki-1 xenograft tumor growth in nude mice; type: in vivo, Nu/Nu mice; settings: for tumor size and weight at sacrifice versus vehicle: tolvaptan 120 mg/Kg daily oral gavage or dDAVP 1 μg/Kg daily IP
Protocol: as §1, with “One week after injection, palpable tumors appeared and tumor volume was measured with calipers following the formula, Tumor volume=(length×width)/2.” left out

Caki-1 cells [3] = assay: Immunostaining of xenograft tumor sections (Ki-67, BRDU, CD31); type: in vivo, Nu/Nu mice; settings: for BRDU staining / incorporation of tumors compared to vehicle / Ki-67 staining of tumors compared to vehicle / tumor micro-vessel density (CD31 staining): OPC31260 IP, tolvaptan 120 mg/Kg oral, dDAVP 1 μg/Kg IP, daily 28 days
Protocol: as §1
Tumor tissues were fixed overnight in 4% paraformaldehyde, dehydrated in a graded alcohol series, and embedded in paraffin for histological analysis as previously described^26. Slides with 5 μm tissue sections were heated in a steamer for 20 min in citrate buffer (pH 6.0) to unmask antigens. Slides were further blocked with 10% goat serum (Invitrogen) and then incubated overnight with primary antibody (V2R, CD31, BRDU, Ki67 and p-H3). After washing the slides with PBST, slides were incubated with appropriate fluorescence-labeled secondary antibody (Invitrogen) and streptavidin HRP conjugated (Invitrogen) secondary antibody for immunoflurorescence and immunohistochemistry, respectively. Slides were also incubated in 4′,6-diamidino-2-phenylindole to visualize nuclei. For immunofluorescence staining, slides were mounted with Fluoromount G (Southern Biotech). For immunohistochemistry, slides were developed with DAB (Vector Laboratories) and counterstained with Harris haematoxylin, dehydrated, and mounted with Permount (Fisher Scientific, Waltham, Mass.). All images were captured using a Nikon 80i microscope (Tokyo, Japan) at the KUMC Imaging Center.

Caki-1 cells [4] = assay: TUNEL assay for apoptosis in xenograft tumor sections; type: in vivo, Nu/Nu mice; settings: OPC31260 IP, tolvaptan 120 mg/Kg oral, dDAVP 1 μg/Kg IP, daily 28 days
Protocol: as §1
TUNEL assays were performed to check apoptosis using the in situ Cell Death Detection Kit (Roche Applied Science, Indianapolis, Ind.). Briefly, slides with 5-μm tumor sections were treated to a TUNEL reaction mixture containing terminal deoxynucleotidyl transferase and nucleotides, including tetramethylrhodamine-labeled dUTP. Both Dapi stained and TUNEL-positive nuclei were counted as described for proliferating cell nuclear antigen. All images were captured using a Nikon 80i microscope (Tokyo, Japan) in the KUMC Imaging Center.

CCRCC = assay: Immunocompetent animal model of spontaneous CCRCC; type: in vivo, Vh1Δ/ΔTrp53Δ/ΔRb1Δ/Δ mice; settings: treatment from 30 weeks after start of tamoxifen till 56 weeks
From the text: The Vh1^Δ/ΔTrp53^Δ/ΔRb1^Δ/Δ mice (Harlander S et al, Nat Med 2017 23(7):869-877) can spontaneously develop CCRCC. Gene deletion of Vhl and tumor suppressors p53 and Rb 1 will be achieved using a Ksp1.3-CreERT2, tamoxifen-inducible system. For the studies, 6-week old Vh1^Δ/ΔTrp53^Δ/ΔRb1^Δ/ΔKsp1.3-CreERT2 mice will be treated with vehicle (saline) or tamoxifen for 14 days used to obtain wildtype control mice and Vh1^Δ/ΔTrp53^Δ/ΔRb1^Δ/Δ mice with RCC stumors. Starting 30 weeks after start of tamoxifen, the wildtype and Vh1^Δ/ΔTrp53^Δ/ΔRb1^Δ/Δ mice will be treated with vehicle, dDAVP, OPC31260, or tolvaptan till 56 weeks. The effect of V2R activation or inhibition will be monitored by MRI as well as by gross and pathological analysis and of kidneys at sacrifice.

[5] = type: in vivo; settings: tolvaptan 120 mg/Kg daily oral gavage or dDAVP 1 μg/Kg daily IP, 28 days; for urine osmolality: data not shown
Protocol: as §1

[6] = humans; cited from earlier work
[7] = in vivo; cited from earlier work
V2R [8] = molecular target: T1, V2R (Homo sapiens, UniProt P30518); settings: cited from earlier work
T1 sequence (P30518 whole entry): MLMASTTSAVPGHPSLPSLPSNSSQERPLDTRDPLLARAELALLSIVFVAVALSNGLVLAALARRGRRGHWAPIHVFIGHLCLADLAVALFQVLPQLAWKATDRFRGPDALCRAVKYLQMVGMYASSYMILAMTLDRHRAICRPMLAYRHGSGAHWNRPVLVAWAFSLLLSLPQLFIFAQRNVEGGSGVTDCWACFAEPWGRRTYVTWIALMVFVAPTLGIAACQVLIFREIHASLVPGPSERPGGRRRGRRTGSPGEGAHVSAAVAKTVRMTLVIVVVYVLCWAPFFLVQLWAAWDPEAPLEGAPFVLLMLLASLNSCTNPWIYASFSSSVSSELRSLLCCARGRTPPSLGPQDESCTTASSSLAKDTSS

V2R [9] = molecular target: T1, V2R; settings: cited from earlier work; remark: listed apart in the source
V1bR = molecular target: T2, V1bR (Homo sapiens, UniProt P47901); settings: cited from earlier work
T2 sequence (P47901 1-424): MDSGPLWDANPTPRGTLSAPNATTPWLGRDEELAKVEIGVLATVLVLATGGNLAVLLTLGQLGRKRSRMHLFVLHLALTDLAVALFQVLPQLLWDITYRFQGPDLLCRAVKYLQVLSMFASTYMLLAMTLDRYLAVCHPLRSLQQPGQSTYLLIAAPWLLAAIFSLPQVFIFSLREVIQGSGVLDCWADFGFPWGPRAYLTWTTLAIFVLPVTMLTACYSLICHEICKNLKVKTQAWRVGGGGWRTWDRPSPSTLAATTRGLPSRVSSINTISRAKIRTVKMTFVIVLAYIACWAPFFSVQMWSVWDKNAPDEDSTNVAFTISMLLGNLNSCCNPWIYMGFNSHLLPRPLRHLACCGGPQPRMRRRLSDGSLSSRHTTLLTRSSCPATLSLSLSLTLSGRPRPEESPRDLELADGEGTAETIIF

[10] = OPC31260 30/60 mg/kg IP, tolvaptan 120 mg/Kg oral, dDAVP 1 μg/Kg IP, 28 days
[11] = tolvaptan 120 mg/Kg oral, dDAVP 1 μg/Kg IP
[12] = dDAVP 1 μg/Kg daily IP injection, day 28

SMILES | pCREB levels in tumor lysates [1, 10] | pERK1/2 levels in tumor lysates [1, 10] | VEGF protein levels in tumors compared to vehicle [1, 11] | tumor size and weight at sacrifice versus vehicle (Caki-1 cells [2]; 28 days) | BRDU staining / incorporation of tumors compared to vehicle (Caki-1 cells [3]) | Ki-67 staining of tumors compared to vehicle (Caki-1 cells [3]) | tumor micro-vessel density (CD31 staining) (Caki-1 cells [3]) | TUNEL staining of tumors compared to vehicle (Caki-1 cells [4]) | expected tumor burden / tumor growth (CCRCC) | body weight of the mice [5] | toxicity [5] | urine osmolality [5] | also measured
CCOc1ccc2c(c1)C1(CCC(OCCN3CCOCC3)CC1)C(=O)N2S(=O)(=O)c1ccc(C(=O)NC(C)(C)C)cc1OC (stereo not drawn) [satavaptan] | – | – | – | – | – | – | – | – | – | – | – | – | effect on dDAVP-induced proliferation (Caki-2): abolished dDAVP-induced proliferation; effect on time-dependent increase in cell proliferation (baseline) (Caki-2): did not reduce; effect on dDAVP-induced proliferation (A498 cells): abolished dDAVP-induced proliferation; effect on time-dependent increase in cell proliferation (baseline) (A498 cells): did not reduce
NC(=O)CC[C@@H]1NC(=O)[C@H](Cc2ccccc2)NC(=O)[C@H](Cc2ccc(O)cc2)NC(=O)CCSSC[C@@H](C(=O)N2CCC[C@H]2C(=O)N[C@H](CCCN=C(N)N)C(=O)NCC(N)=O)NC(=O)[C@H](CC(N)=O)NC1=O [dDAVP, 1-desamino-8-d-arginine vasopressin] | increased | reduced | did not affect | larger than in the vehicle group | no significant change | significant increase | increased | no significant change | increased tumor burden | did not significantly change | minimal obvious toxicity | increased | ERK1/2 levels in tumor lysates ([1]; dDAVP 1 μg/Kg IP, 28 days): reduced; proliferation on V2R activation (Caki-2): increased proliferation; proliferation on V2R activation (A498 cells): increased proliferation; tumor volume till day 21 (Caki-1 cells [2]; dDAVP 1 μg/Kg daily IP injection): did not increase significantly; tumor volume by day 28, higher than its baseline (Caki-1 cells [2]; [12]): 16 fold; tumor volume by day 28, higher than vehicle group (Caki-1 cells [2]; [12]): 2 fold
Cc1ccccc1C(=O)Nc1ccc(C(=O)N2CCCC(O)c3cc(Cl)ccc32)c(C)c1 (stereo not drawn) [tolvaptan, N-[4-[(7-chloro-2,3,4,5-tetrahydro-5-hydroxy-1H-1-benzazepin-1-yl)carbonyl]-3-methylphenyl]-2-methylbenzamide] | reduced | reduced | significantly reduced | smaller and weighed significantly less | significantly reduced | significantly reduced | did not appear to alter | increased | significantly suppress tumor growth | did not significantly change | minimal obvious toxicity | significantly reduced | CREB levels in tumor lysates ([1]; OPC31260 30/60 mg/kg IP, tolvaptan 120 mg/Kg oral, 28 days): reduced; mean absolute bioavailability [6]: 56%; oral activity compared with OPC31260 [7]: relatively better oral activity than OPC31260; selectivity in blocking [3H]AVP binding to human V2R than V1aR (V2R [8]): 29 fold; intrinsic V2R agonistic effect (V2R [9]): no intrinsic V2R agonistic effect; tumor volume versus vehicle (Caki-1 cells [2]; tolvaptan 120 mg/Kg daily oral gavage, 28 days): significantly reduced; effect on cell proliferation and apoptosis compared with OPC31260 (Caki-1 cells [3]; tolvaptan 120 mg/Kg oral versus OPC31260 IP): relatively lower than that of OPC31260; inhibition of V1bR (V1bR): does not inhibit
